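Tested at 5 concentrations; 48 h exposure; 96-well plates; endpoints linearly interpolated, else capped at highest concentration. GI50 is the concentration that inhibits growth by half. Definition used: TGI = concentration required for complete inhibition of growth.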
What was measured:
Assay in all cases: inhibition of tumour cell growth, NCI panel, 48 h
CAKI-1 renal = system: CAKI-1 renal
SF-268 CNS = system: SF-268 CNS
HOP-62 NSCLC = system: HOP-62 NSCLC
BT-549 breast = system: BT-549 breast
EKVX NSCLC = system: EKVX NSCLC
HCC-2998 colon = system: HCC-2998 colon
SK-MEL-2 melanoma = system: SK-MEL-2 melanoma
SF-539 CNS = system: SF-539 CNS
CCRF-CEM leukemia = system: CCRF-CEM leukemia
OVCAR-3 ovarian = system: OVCAR-3 ovarian
786-0 renal = system: 786-0 renal
KM12 colon = system: KM12 colon
HOP-92 NSCLC = system: HOP-92 NSCLC
MOLT-4 leukemia = system: MOLT-4 leukemia
T-47D breast = system: T-47D breast
SK-MEL-5 melanoma = system: SK-MEL-5 melanoma
LOX IMVI melanoma = system: LOX IMVI melanoma
PC-3 prostate = system: PC-3 prostate
MCF7 breast = system: MCF7 breast
SK-OV-3 ovarian = system: SK-OV-3 ovarian
HCT-116 colon = system: HCT-116 colon
HCT-15 colon = system: HCT-15 colon
UACC-62 melanoma = system: UACC-62 melanoma
OVCAR-8 ovarian = system: OVCAR-8 ovarian
NCI-H522 lung = system: NCI-H522 lung
A549 NSCLC = system: A549 NSCLC
M14 melanoma = system: M14 melanoma
NCI/ADR-RES ovarian = system: NCI/ADR-RES ovarian
RPMI-8226 leukemia = system: RPMI-8226 leukemia
MDA-MB-231 breast = system: MDA-MB-231 breast
SNB-19 CNS = system: SNB-19 CNS
DU-145 prostate = system: DU-145 prostate
MDA-MB-435 = system: MDA-MB-435
SN12C renal = system: SN12C renal
UO-31 renal = system: UO-31 renal
ACHN renal = system: ACHN renal
NCI-H23 lung = system: NCI-H23 lung
HS 578T breast = system: HS 578T breast
NCI-H460 lung = system: NCI-H460 lung
K-562 leukemia = system: K-562 leukemia
SF-295 CNS = system: SF-295 CNS
SW-620 colon = system: SW-620 colon
UACC-257 melanoma = system: UACC-257 melanoma
U251 CNS = system: U251 CNS
MALME-3M melanoma = system: MALME-3M melanoma
SK-MEL-28 melanoma = system: SK-MEL-28 melanoma
OVCAR-5 ovarian = system: OVCAR-5 ovarian
NCI-H226 lung = system: NCI-H226 lung
COLO 205 colon = system: COLO 205 colon
HL-60(TB) leukemia = system: HL-60(TB) leukemia
TK-10 renal = system: TK-10 renal
SR leukemia = system: SR leukemia

O=C1c2cc(Br)ccc2-c2c1c1ccccc1c(=O)n2CCCCl
GI50 (CAKI-1 renal): 2.84 µM
TGI (CAKI-1 renal): 20.6 µM
GI50 (SF-268 CNS): 41.2 µM
TGI (SF-268 CNS): > 100 µM
GI50 (HOP-62 NSCLC): 3.34 µM
TGI (HOP-62 NSCLC): 17.8 µM
GI50 (BT-549 breast): 44.5 µM
TGI (BT-549 breast): > 100 µM
GI50 (EKVX NSCLC): 94.3 µM
TGI (EKVX NSCLC): > 100 µM
GI50 (HCC-2998 colon): 14.1 µM
TGI (HCC-2998 colon): 71.5 µM
GI50 (SK-MEL-2 melanoma): 76.8 µM
TGI (SK-MEL-2 melanoma): > 100 µM
GI50 (SF-539 CNS): 25.1 µM
TGI (SF-539 CNS): 68.5 µM
GI50 (CCRF-CEM leukemia): 8.51 µM
TGI (CCRF-CEM leukemia): > 100 µM
GI50 (OVCAR-3 ovarian): 0.964 µM
TGI (OVCAR-3 ovarian): 7.91 µM
GI50 (786-0 renal): 7.95 µM
TGI (786-0 renal): 26.2 µM
GI50 (KM12 colon): 16.6 µM
TGI (KM12 colon): > 100 µM
GI50 (HOP-92 NSCLC): 12.7 µM
TGI (HOP-92 NSCLC): 46.2 µM
GI50 (MOLT-4 leukemia): 3.07 µM
TGI (MOLT-4 leukemia): 8.6 µM
GI50 (T-47D breast): > 100 µM
TGI (T-47D breast): > 100 µM
GI50 (SK-MEL-5 melanoma): 14.4 µM
TGI (SK-MEL-5 melanoma): 77.7 µM
GI50 (LOX IMVI melanoma): 8.56 µM
TGI (LOX IMVI melanoma): 61.3 µM
GI50 (PC-3 prostate): 18.3 µM
TGI (PC-3 prostate): > 100 µM
GI50 (MCF7 breast): 1.61 µM
TGI (MCF7 breast): > 100 µM
GI50 (SK-OV-3 ovarian): 29.3 µM
TGI (SK-OV-3 ovarian): > 100 µM
GI50 (HCT-116 colon): 3.05 µM
TGI (HCT-116 colon): 17.1 µM
GI50 (HCT-15 colon): 26.8 µM
TGI (HCT-15 colon): > 100 µM
GI50 (UACC-62 melanoma): 5.65 µM
TGI (UACC-62 melanoma): 22.3 µM
GI50 (OVCAR-8 ovarian): 15.9 µM
TGI (OVCAR-8 ovarian): 65.8 µM
GI50 (NCI-H522 lung): 39.8 µM
TGI (NCI-H522 lung): > 100 µM
GI50 (A549 NSCLC): 3.99 µM
TGI (A549 NSCLC): 36.3 µM
GI50 (M14 melanoma): 13.2 µM
TGI (M14 melanoma): > 100 µM
GI50 (NCI/ADR-RES ovarian): 15.2 µM
TGI (NCI/ADR-RES ovarian): 60.1 µM
GI50 (RPMI-8226 leukemia): 41.6 µM
TGI (RPMI-8226 leukemia): > 100 µM
GI50 (MDA-MB-231 breast): 13.1 µM
TGI (MDA-MB-231 breast): 37.1 µM
GI50 (SNB-19 CNS): 72.2 µM
TGI (SNB-19 CNS): > 100 µM
GI50 (DU-145 prostate): 64.7 µM
TGI (DU-145 prostate): > 100 µM
GI50 (MDA-MB-435): 29.4 µM
TGI (MDA-MB-435): > 100 µM
GI50 (SN12C renal): 14.1 µM
TGI (SN12C renal): 55.9 µM
GI50 (UO-31 renal): 41 µM
TGI (UO-31 renal): > 100 µM
GI50 (ACHN renal): 9.19 µM
TGI (ACHN renal): 30.8 µM
GI50 (NCI-H23 lung): 13 µM
TGI (NCI-H23 lung): 40.9 µM
GI50 (HS 578T breast): 27.4 µM
TGI (HS 578T breast): 90.7 µM
GI50 (NCI-H460 lung): 7.54 µM
TGI (NCI-H460 lung): > 100 µM
GI50 (K-562 leukemia): 34.8 µM
TGI (K-562 leukemia): > 100 µM
GI50 (SF-295 CNS): 4.29 µM
TGI (SF-295 CNS): 21.4 µM
GI50 (SW-620 colon): 40.9 µM
TGI (SW-620 colon): > 100 µM
GI50 (UACC-257 melanoma): 17.7 µM
TGI (UACC-257 melanoma): 95.7 µM
GI50 (U251 CNS): 13.5 µM
TGI (U251 CNS): 36.7 µM

COC12OC3(C4OC41)C(C(=O)O[C@H]3CO[Si](C)(C)C(C)(C)C)C2S(=O)(=O)c1ccccc1 (some centres undefined)
TGI (CAKI-1 renal): 3.33 µM
TGI (HOP-62 NSCLC): > 5.97 µM
TGI (BT-549 breast): > 100 µM
TGI (EKVX NSCLC): > 5.18 µM
TGI (HCC-2998 colon): > 100 µM
TGI (SK-MEL-2 melanoma): > 5.33 µM
TGI (MALME-3M melanoma): > 85.1 µM
TGI (SF-539 CNS): > 100 µM
TGI (CCRF-CEM leukemia): 4.04 µM
TGI (SK-MEL-28 melanoma): > 5.53 µM
TGI (OVCAR-3 ovarian): > 100 µM
TGI (OVCAR-5 ovarian): > 12.2 µM
TGI (786-0 renal): > 7.71 µM
TGI (NCI-H226 lung): > 100 µM
TGI (COLO 205 colon): 47.3 µM
TGI (HOP-92 NSCLC): > 100 µM
TGI (MOLT-4 leukemia): 3.53 µM
TGI (T-47D breast): > 100 µM
TGI (PC-3 prostate): > 90.2 µM
TGI (MCF7 breast): > 100 µM
TGI (SK-OV-3 ovarian): > 30.4 µM
TGI (HCT-116 colon): > 7.06 µM
TGI (HCT-15 colon): > 100 µM
TGI (UACC-62 melanoma): > 7.52 µM
TGI (OVCAR-8 ovarian): > 100 µM
TGI (NCI-H522 lung): 50.4 µM
TGI (A549 NSCLC): > 100 µM
TGI (NCI/ADR-RES ovarian): > 100 µM
TGI (HL-60(TB) leukemia): 7.66 µM
TGI (RPMI-8226 leukemia): 11.7 µM
TGI (MDA-MB-231 breast): > 7.32 µM
TGI (DU-145 prostate): > 6.06 µM
TGI (TK-10 renal): > 100 µM
TGI (MDA-MB-435): > 5.11 µM
TGI (SN12C renal): > 9.26 µM
TGI (UO-31 renal): > 5.18 µM
TGI (ACHN renal): > 83.9 µM
TGI (NCI-H23 lung): > 100 µM
TGI (HS 578T breast): > 100 µM
TGI (NCI-H460 lung): > 100 µM
TGI (K-562 leukemia): 5.03 µM
TGI (SF-295 CNS): > 100 µM
TGI (SW-620 colon): > 31.6 µM
TGI (UACC-257 melanoma): > 12.6 µM
TGI (SR leukemia): > 100 µM
TGI (U251 CNS): > 7.83 µM

— PubChem BioAssay (NCI)
